Assay results published in patent US11572590B2, “Methods for evaluating tumor cell spheroids using 3D microfluidic cell culture device” (Dana-Farber Cancer Institute, Inc., priority 2017, dated 2023).
Where two headings read alike, the source gives them in different places.

What was measured:
Experiment in all cases: SelectScreen Kinase Profiling, single point inhibition and IC50 for off-target kinases
Type in all cases: biochemical
[1] = biological target: off-target kinases (Homo sapiens, UniProt P41279); conditions: MAP3K8 (COT), ZLYTE, ATP 100
Description: (§1) Biochemical single point inhibition and IC50 concentrations for TBK1, IKKε (IKBKE), and off-target kinases were determined at ThermoFisher Scientific using SelectScreen Kinase Profiling Services (Madison, Wis., USA) (Tables S4A and S4B-1-7). To determine cellular potency, the human colorectal cancer carcinoma cell line HCT116 (ATCC, Manassas, Va.) was maintained in T175 flasks in complete RPMI medium; RPMI 1640 supplemented with 10% FBS, 1× Penicillin-Streptomycin solution and 1×MEM (non-essential amino acids). HCT116 cells were grown to 90-95% confluency in T175 flasks containing complete RPMI medium and transfected in bulk using Lipofectamine 2000 (Invitrogen, Carlsbad, Calif.) with 70 μg of ISG54-luciferase reporter plasmid (Elim Biopharmaceuticals Inc., Hayward, Calif.). The reporter plasmid contains a luciferase gene expression cassette under the transcriptional regulation of the promoter of the human interferon stimulated gene 54 (ISG54). Transfection of the cells was allowed to take place for 6 hours, after which the cells were harvested by treatment with 0.25% trypsin EDTA (Corning Inc., Corning, N.Y.). Trypsinized cells were added to 384-well poly-d-lysine treated black clear bottom tissue culture assay plates (Greiner Bio-One GmbH, Kremsmünster, Austria) at a density of 20,000 cells/well in 80 μL of complete RPMI medium and incubated overnight. After 16-18 hours post-transfection, the assay plates were washed with PBS (Corning Inc., Corning, N.Y.), followed by addition of 80 μL/well of serum-free RPMI 1640 medium containing 1× Penicillin-Streptomycin solution, 1×MEM and 350 nL of DMSO or titrations of Compound 1. Compound 1 titrations were generated by 1.5-fold dilution steps in two overlapping serial dilution series to generate a 40-point compound dose range. After incubation at 37° C. for 1 hour, the cells were stimulated with Poly(I:C) (InvivoGen, San Diego, Calif.) at a final concentration of 15 μg/mL in Optimem media (Life Technologies, Rockville, Md.). The assay plates were incubated for 5 hours at 37° C., followed by addition of One-Glo luciferase firefly reagent (Promega, Madison, Wis.) at 1:1 volume/well and luminescence was measured in an EnVision Multilabel Plate Reader (PerkinElmer, Santa Clara, Calif.). The EC50 values were calculated from the fit of the dose-response curves to a four-parameter equation. All EC50 values represent geometric mean values of a minimum of four determinations.

[2] = biological target: off-target kinases (Homo sapiens, UniProt P45984); conditions: MAPK9 (JNK2)
Description: as §1

[3] = biological target: off-target kinases (Homo sapiens, UniProt P80192); conditions: MAP3K9 (MLK1), ATP Km app, ZLYTE
Description: as §1

[4] = biological target: T1, off-target kinases (Homo sapiens, UniProt Q8IW41); conditions: MAPKAPK5 (PRAK), ZLYTE, ATP Km app
T1 sequence (Q8IW41 1-473): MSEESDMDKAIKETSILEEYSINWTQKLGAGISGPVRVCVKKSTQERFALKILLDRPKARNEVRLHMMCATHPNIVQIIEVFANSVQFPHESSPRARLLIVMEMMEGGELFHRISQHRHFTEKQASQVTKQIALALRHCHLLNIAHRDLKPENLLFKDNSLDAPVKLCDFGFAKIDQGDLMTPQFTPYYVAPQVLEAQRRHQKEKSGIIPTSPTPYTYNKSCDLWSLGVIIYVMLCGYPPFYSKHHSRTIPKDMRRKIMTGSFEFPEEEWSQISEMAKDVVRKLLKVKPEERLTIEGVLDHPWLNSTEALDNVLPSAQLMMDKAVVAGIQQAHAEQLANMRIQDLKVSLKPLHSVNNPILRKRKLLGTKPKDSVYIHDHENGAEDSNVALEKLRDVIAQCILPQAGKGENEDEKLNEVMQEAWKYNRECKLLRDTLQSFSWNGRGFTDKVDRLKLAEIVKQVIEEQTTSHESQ
Description: as §1

[5] = biological target: T2, off-target kinases (Homo sapiens, UniProt Q8TD08); conditions: MAPK15 (ERK7), LanthaScreen Binding
T2 sequence (Q8TD08 1-544): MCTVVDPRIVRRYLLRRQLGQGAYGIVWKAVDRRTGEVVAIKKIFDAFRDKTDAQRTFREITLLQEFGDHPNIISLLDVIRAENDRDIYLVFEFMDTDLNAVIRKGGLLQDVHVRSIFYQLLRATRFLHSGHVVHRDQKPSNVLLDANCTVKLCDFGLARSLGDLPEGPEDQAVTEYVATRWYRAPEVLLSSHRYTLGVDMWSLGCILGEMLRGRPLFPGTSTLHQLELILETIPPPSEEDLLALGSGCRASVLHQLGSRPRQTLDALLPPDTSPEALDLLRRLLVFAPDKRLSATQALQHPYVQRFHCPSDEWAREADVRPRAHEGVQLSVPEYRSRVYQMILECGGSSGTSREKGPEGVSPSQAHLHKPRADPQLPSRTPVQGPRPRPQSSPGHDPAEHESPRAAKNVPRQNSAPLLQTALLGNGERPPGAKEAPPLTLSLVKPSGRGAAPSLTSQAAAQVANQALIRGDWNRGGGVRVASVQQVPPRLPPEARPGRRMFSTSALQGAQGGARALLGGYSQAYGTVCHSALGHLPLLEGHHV
Description: as §1

off-target kinases (Homo sapiens, UniProt P80192), sequence (P80192 whole entry): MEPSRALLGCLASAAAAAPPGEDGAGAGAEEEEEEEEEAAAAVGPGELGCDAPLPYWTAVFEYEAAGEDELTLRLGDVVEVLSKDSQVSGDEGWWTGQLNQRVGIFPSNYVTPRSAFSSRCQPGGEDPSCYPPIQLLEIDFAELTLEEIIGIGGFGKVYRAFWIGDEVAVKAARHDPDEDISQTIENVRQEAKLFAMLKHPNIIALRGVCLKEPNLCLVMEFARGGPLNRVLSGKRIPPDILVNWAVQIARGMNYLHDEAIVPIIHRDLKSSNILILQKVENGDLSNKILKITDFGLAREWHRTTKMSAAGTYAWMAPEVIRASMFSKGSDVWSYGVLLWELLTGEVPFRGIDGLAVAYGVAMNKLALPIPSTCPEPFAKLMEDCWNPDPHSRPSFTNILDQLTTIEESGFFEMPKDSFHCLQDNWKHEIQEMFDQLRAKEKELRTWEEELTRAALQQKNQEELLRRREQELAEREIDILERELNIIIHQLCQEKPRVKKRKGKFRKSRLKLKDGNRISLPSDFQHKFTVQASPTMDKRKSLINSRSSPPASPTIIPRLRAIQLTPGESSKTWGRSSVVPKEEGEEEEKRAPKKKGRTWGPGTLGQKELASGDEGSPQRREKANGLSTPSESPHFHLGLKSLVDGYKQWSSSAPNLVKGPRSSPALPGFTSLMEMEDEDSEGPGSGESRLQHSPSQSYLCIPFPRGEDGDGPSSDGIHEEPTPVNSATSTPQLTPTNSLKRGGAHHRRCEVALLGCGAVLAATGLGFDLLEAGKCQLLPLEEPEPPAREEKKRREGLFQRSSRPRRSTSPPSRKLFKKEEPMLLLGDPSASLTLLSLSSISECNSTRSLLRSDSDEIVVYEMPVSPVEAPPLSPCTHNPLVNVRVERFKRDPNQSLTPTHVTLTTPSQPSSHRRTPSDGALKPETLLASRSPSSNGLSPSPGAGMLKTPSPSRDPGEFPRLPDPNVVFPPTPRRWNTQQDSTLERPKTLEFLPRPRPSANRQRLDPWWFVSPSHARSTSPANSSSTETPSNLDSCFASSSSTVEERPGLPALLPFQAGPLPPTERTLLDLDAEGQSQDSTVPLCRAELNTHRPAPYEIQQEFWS
off-target kinases (Homo sapiens, UniProt P41279), sequence (P41279 whole entry): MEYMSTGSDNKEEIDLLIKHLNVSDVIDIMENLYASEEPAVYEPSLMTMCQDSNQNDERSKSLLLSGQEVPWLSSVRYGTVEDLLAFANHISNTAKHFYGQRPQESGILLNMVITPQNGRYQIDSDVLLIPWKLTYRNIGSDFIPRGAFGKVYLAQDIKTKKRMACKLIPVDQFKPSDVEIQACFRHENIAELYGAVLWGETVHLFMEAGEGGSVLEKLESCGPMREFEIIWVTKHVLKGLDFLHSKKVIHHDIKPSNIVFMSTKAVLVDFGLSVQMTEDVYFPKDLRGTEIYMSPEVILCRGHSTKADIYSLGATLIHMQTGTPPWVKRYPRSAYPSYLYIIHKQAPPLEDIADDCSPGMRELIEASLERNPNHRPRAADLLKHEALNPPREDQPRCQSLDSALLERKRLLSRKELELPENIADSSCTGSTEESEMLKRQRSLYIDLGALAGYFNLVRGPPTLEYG
off-target kinases (Homo sapiens, UniProt P45984), sequence (P45984 whole entry): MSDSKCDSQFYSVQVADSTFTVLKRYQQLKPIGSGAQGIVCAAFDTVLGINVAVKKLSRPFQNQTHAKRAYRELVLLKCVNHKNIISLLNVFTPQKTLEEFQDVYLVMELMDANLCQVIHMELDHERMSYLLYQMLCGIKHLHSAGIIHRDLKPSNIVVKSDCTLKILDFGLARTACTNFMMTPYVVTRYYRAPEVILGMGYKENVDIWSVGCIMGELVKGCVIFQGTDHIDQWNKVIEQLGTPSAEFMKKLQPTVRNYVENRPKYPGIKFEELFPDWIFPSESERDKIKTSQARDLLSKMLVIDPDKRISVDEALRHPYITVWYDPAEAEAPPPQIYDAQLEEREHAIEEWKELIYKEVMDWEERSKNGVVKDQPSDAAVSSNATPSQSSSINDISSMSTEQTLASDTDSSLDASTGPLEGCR

N#Cc1cc(-c2ncnc(Nc3ccc(N4CCN(C5COC5)CC4)cc3)n2)ccc1OC1CCOCC1 [Compound 1, 5-(4-((4-(4-(oxetan-3-yl)piperazin-1-yl)phenyl)amino)-1,3,5-triazin-2-yl)-2-((tetrahydro-2H-pyran-4-yl)oxy)benzonitrile]
inhibition ([1]; read-out: % Inhibition 1): 19%
inhibition ([1]; read-out: % Inhibition 2): 11%
inhibition ([1]; read-out: % Inhibition Avg): 15%
inhibition ([2]; LanthaScreen Binding, read-out: % Inhibition 1): 12%
inhibition ([2]; LanthaScreen Binding, read-out: % Inhibition 2): 14%
inhibition ([2]; LanthaScreen Binding, read-out: % Inhibition Avg): 13%
inhibition ([2]; ZLYTE, ATP 100, read-out: % Inhibition 1): 12%
inhibition ([2]; ZLYTE, ATP 100, read-out: % Inhibition 2): 21%
inhibition ([2]; ZLYTE, ATP 100, read-out: % Inhibition Avg): 16%
inhibition ([3]; read-out: % Inhibition 1): 68%
inhibition ([3]; read-out: % Inhibition 2): 73%
inhibition ([3]; read-out: % Inhibition Avg): 70%
inhibition ([4]; read-out: % Inhibition 1): 6%
inhibition ([4]; read-out: % Inhibition 2): 7%
inhibition ([4]; read-out: % Inhibition Avg): 6%
inhibition ([5]; read-out: % Inhibition 1): 100%
inhibition ([5]; read-out: % Inhibition 2): 100%
inhibition ([5]; read-out: % Inhibition Avg): 100%
